From patent publication US20090281025A1, “INHIBITION OF TUMOR GROWTH AND METASTASIS BY ATF2-DERIVED PEPTIDES” (Mount Sinai School Of Medicine of New York University, priority 2004, published 2009)
Entries after “also recorded” stand apart in the source; their conditions may differ.

Legend:
Jun2-Luc = Jun2-Luc luciferase reporter assay in SW1 cells; type: cell-based, mouse; details: SW1 cells expressing peptide, luciferase after 18 hours
Procedure: (§1) SW1 cells constitutively expressing the indicated ATF2 peptides were transfected with either TRE-Luc (FIG. 5A) or with Jun2-Luc (FIG. 5B), and proteins were prepared for analysis of luciferase activity after 18 hours. Analysis was performed in duplicate, and the data reflect three independent experiments. SW1 cells expressing the ATF2 peptides were analyzed to establish the degree of spontaneous (basal) apoptosis as well as apoptosis 24 hours following treatment with the chemotherapeutic drug UCN-01 (FIG. 5C). The data represent triplicate analysis reproduced three times.
Alteration of ATF2 Transcriptional Activity. Assessed next was whether the short peptide caused any change in transcriptional activity mediated by ATF2 and its heterodimeric partners, using the TRE and Jun2 promoter sequences linked to the Luciferase marker gene. These reporter constructs (0.3 μg) were cotransfected with the respective expression vectors into melanoma cells (5×10^5) using Lipofectamine (Invitrogen). Luciferase activity was measured using the Luciferase assay system (Promega).

human melanoma cells = details: cited from earlier work
[1] = system: Human melanoma cells LU1205; test: Caspase and PARP cleavage immunoblot in LU1205 cells; type: cell-based; details: peptides by transfection, UCN-01 (5 μm) 24 hours
Procedure: Human melanoma cells LU1205 were transfected with the nucleic acid molecules that encode either ATF2^51-100 peptide or ATF2^51-60 peptide. Twenty-four hours after transfection, cells were treated with of UCN-01 (5 μm) for 24 hours. Immunoblotting analysis was performed using caspase 9 and PARP antibodies, and β-actin was used as a loading control (FIG. 6A). The same experiment was performed in SW-1 cells (FIG. 6B). Stars point to the position of the uncleaved form whereas arrows point to the cleaved products.
(§2) Effect on Apoptosis. Assessed next was the degree of apoptosis in SW1 cells under normal growth (spontaneous) as well as following treatment with chemotherapeutic drugs. Cells were analyzed to detect spontaneous (basal) or induced apoptosis [following treatment with the kinase inhibitor UCN-01 (kindly provided by NCI repository) for 36 hours]. Apoptosis was measured by using FACS (Ivanov et al., Mol. Cell, 2001, 7:517-28) to quantify the percentage of hypodiploid nuclei undergoing DNA fragmentation. Nucleation as a marker of apoptosis was monitored via DAPI staining of cells at indicated time points after their treatment. Caspase activity was monitored by immunoblots using antibodies to caspase 9 (Santa Cruz). PARP cleavage was monitored by corresponding antibodies (PharMingen).

SW1 cells = test: Tumor growth of SW1 cells constitutively expressing ATF2 peptides, injected subcutaneously; type: in vivo, mouse; details: 10^6 SW1 cells SC, 18 days; control construct 1100 mm^3
Procedure: SW1 cells, which constitutively express the peptides indicated in FIG. 4A, were analyzed to detect expression of ATF2 peptides at the RNA level using RT-PCR. The indicated MW bands reflect the expected size product. SW1 cells (10^6) were injected subcutaneously into […] mice and tumor growth was monitored for 18 days, at which point tumors were removed and their size carefully assessed (FIG. 4B). Each group included 6 animals and each experiment was performed twice (P<0.01; T-test).
Inhibition of Tumor Growth. To examine the importance of the JNK association domain on ATF2, the possible role of a smaller peptide containing an intact JNK binding site (i.e., amino acids M^51T^52 of ATF2) was examined. To this end, three peptides of differing sizes (amino acids 51-80, 51-70, and 51-60) were compared to ATF2^51-100 peptide in their ability to inhibit tumor growth of SW1 cells in vivo. RT-PCR reactions confirmed the expression of these peptides' transcripts in the SW1 cells (FIG. 4A). […] However, expression of the 50aa peptide in these cells (constitutive expression based on selection of drug-resistant cells) decreased tumor size to 300 mm^3. Strikingly, constitutive expression of each of the 3 shorter peptides also elicited inhibition of melanoma growth that varied from 400-600 mm^3 (FIG. 4B). […] Further evaluation was performed on this 10 amino acid peptide.

[2] = system: MCF7 human breast cancer cells; details: cited from earlier work
[3] = system: FEMX human melanoma cells; test: Growth and TUNEL apoptosis of FEMX human melanoma tumors expressing ATF2 peptide in nude mice; type: in vivo
Excerpt: LU1205 or FEMX human melanoma tumor-derived cell lines that constitutively express ATF2^51-100 peptide or that contain control vector were each injected subcutaneously into a group of 6 nude mice (10^6 cells per injection) per cell line per experiment. […] The data shown represent three experiments. Bars represent standard deviation, P<0.0015. […] The data shown represent three experiments. Bars represent standard deviation, P<0.0021.
The ability of expressed ATF2^51-100 peptide to affect the tumorigenicity of human melanoma cells in vivo was examined. To this end, growth of LU1205 and FEMX human melanoma cells were monitored in nude mice in the presence or absence of treatment that induced apoptosis in vitro. LU1205, FEMX and SW-1 cells that express control or ATF2^51-100 peptide were trypsinized, resuspended in PBS and injected SC (1×10^6) into 6-7 week old mice in the lower flank. When the tumor reached the size of about 50 mm^3, 10 μM of SB203580 was injected into 4 areas of the LU1205 tumors every 4 days during a 2 week period. For FEMX tumors, UCN-01 (5 mg/Kg) was fed by gavage, three times per week for a total of 2 weeks. Tumor growth was monitored every two days. Tissue samples were fixed in formalin and embedded in paraffin. Hematoxylin and eosin (H&E), TUNEL staining was performed as previously described (Bhoumik et al., Clin. Cancer Res., 2001; 2:331-342).

SW1 melanoma cells = test: Apoptosis of SW1 cells by FACS (hypodiploid nuclei); type: cell-based, mouse; details: SW1 cells expressing peptide, given as control-to-peptide increase
Procedure: as §1, §2

ATF2^51-100: amino-terminal peptide of ATF2, amino acid residue 51 to 100 (about a 50 amino acid peptide), expressed in tumor cells (MTLKFGPARNDSVIVADQTPTPTRFLKNCEEVGLFNELASPFENEFKKAS; UniProt P15336 51-100, looked up, fragment)
Jun2-Luc transcriptional activity (Jun2-Luc): efficiently inhibited | degree of programmed cell death (spontaneous and induced apoptosis) (human melanoma cells; combined with an inhibitor of the p38 catalytic activity): increase in the degree of programmed cell death | sensitivity to UV radiation or mitomycin C, adriamycin and verapamil, or UCN-01 (apoptosis assays) (human melanoma cells; compared with three other 50 amino acid amino-terminal ATF2 peptides): most efficient increase in the sensitivity | cell surface expression of Fas (human melanoma cells; late stage melanoma cells): increased cell surface expression of Fas | activation of caspase 9 (cleavage fragments) [1]: activation of caspase 9 even prior to treatment with UCN-01 | tumor size (SW1 cells): 300 mm^3 | sensitization by ATF2 peptide [2]: also observed | tumor growth rate ([3]; FEMX cells constitutively expressing peptide, SC in nude mice): reduced the growth rates; also recorded: inhibits growth | tumor growth with additional treatment ([3]; peptide-expressing FEMX tumors plus UCN-01 5 mg/Kg by gavage): additional decrease in growth | degree of apoptosis in tumors (TUNEL) ([3]; peptide-expressing tumors upon exposure to additional treatment): marked increase in the degree of apoptosis | spontaneous (basal) apoptosis (SW1 melanoma cells; absence of treatment): 12-55% | UCN-01-induced apoptosis (SW1 melanoma cells; treated with UCN-01): 20-77%
